Results published in patent publication US20230080054A1 (ILDONG PHARMACEUTICAL CO., LTD., priority 2021, published 2023).

Target: T1, human ANO6 (Homo sapiens, UniProt Q4KMQ2)
T1 construct: expressed in transfected cells
T1 sequence (Q4KMQ2 1-931 isoform Q4KMQ2-2): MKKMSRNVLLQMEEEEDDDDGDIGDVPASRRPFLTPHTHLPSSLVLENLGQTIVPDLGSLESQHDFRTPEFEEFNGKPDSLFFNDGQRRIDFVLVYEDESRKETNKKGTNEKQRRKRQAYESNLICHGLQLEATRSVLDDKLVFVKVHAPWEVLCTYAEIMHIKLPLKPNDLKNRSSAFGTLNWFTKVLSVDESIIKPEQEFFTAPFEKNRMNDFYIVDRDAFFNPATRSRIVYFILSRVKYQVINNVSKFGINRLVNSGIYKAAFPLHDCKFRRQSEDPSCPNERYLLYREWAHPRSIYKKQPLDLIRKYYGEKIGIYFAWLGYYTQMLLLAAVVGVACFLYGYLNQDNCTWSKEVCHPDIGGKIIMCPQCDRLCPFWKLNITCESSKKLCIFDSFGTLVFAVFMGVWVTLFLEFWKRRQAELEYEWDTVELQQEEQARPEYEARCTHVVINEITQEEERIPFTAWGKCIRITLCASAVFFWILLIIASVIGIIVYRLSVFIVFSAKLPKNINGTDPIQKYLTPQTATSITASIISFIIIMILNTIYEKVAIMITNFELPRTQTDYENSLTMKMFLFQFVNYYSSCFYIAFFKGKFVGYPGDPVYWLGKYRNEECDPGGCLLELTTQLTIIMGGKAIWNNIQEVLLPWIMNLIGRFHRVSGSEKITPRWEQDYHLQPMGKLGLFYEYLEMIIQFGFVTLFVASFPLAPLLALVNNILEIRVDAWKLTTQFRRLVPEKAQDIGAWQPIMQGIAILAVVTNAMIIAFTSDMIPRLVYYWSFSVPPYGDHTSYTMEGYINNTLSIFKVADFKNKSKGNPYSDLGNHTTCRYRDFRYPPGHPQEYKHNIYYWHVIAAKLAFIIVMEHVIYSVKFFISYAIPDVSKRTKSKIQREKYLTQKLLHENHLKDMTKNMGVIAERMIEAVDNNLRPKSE
Assay: LACT C2 assay (phosphatidylserine scramblase function assay)
Format: cell-based
Settings: FRT cells expressing human ANO6, 10 μM ionomycin; for inhibition at 0.1 µM: test compound 100 nM, read-out: Inhibition Level 100 nM; for inhibition at 1 µM: test compound 1 μM, read-out: Inhibition Level 1 μM
Excerpt: Phosphatidylserine Scramblase Function Assay
1. Materials and Instruments
Ionomycin (Alomonelab, cat. #I-700), DAPI (Sigma-Aldrich, cat. #D8417), paraformaldehyde (Biosesang, cat. #P2031), Lionheart FX Automated Microscope (BioTek, Winooski), Python3 (Python Software Foundation), and OpenCV (Open Source Computer Vision Library).
Fisher rat thyroid (FRT) cells stably expressing human ANO6 (GenBank accession no. NP_001191732.1, provided by J. H. Nam, Dongguk University College of Medicine, Korea) were grown in DMEM/Ham's F-12 (1:1) medium with 10% FBS, 2 mM L-549 glutamine, 100 units/mL penicillin, and 100 μg/mL streptomycin at 37° C. and 5% CO2.
FRT cells stably expressing human ANO6 were plated in 96 well black-walled microplates at a density of 2×10^4 cells/well. After 24 hours incubation, cells were treated with the test compound (dissolved in DMSO) were treated to each well to become 1% v/v DMSO for 10 minutes, then 10 μM of ionomycin was applied. Finally each well was washed with 200 μL PBS after 10 minutes. After washout, the phosphatidylserine and nuclei were stained with PBS containing 500 nM Lactadherin-C2 (Lact-C2)-GFP, then cells were washed with 200 μL PBS. Cells were fixed with 4% paraformaldehyde for 5 minutes at room temperature. For morphological analysis, some cells were stained with fluorescently labelled DAPI for 15 minutes at room temperature. Quantitative analysis of the fluorescence intensity of Lact-C2-GFP was performed with Python3 and OpenCV. OpenCV was used to remove background and noise pixels, and the sum of all remaining pixel values was used to evaluate the fluorescence intensity of Lact-C2-GFP.
The inhibitory activity (%) of each of the test compounds was obtained by the following steps. In each row of 96 well plate, the inhibitory activity of each of the test compounds was calculated as percentages. The inhibitory activity of a negative control group to which neither compounds nor ionomycin were treated was set to be 100%, and the inhibitory activity of a positive control group to which ionomycin was treated and compounds were not treated was set to be 0%. The assay was performed in triplicate, and the results were averaged.

Row | SMILES | inhibition at 0.1 µM [%] | inhibition at 1 µM [%]
1 | O=C(Nc1cccc(F)c1)c1cccc(Nc2ccc(-c3ccncc3)cc2)c1 [Compound 162, N-(3-fluorophenyl)-3-((4-(pyridin-4-yl)phenyl)amino)benzamide] | < 30 | ≥ 60
2 | O=C(N[C@@H]1C[C@H]1c1ccccc1)c1cncc(Nc2ncc(-c3ccccc3)cn2)c1 [Compound 156, N-((1R,2S)-2-phenylcyclopropyl)-5-((5-phenylpyrimidin-2-yl)amino)nicotinamide] | < 30 | 30 to 60
3 | O=C(N[C@@H]1C[C@H]1c1ccc(Cl)c(F)c1)c1cccc(Nc2ncc(-c3cccc(F)c3)cn2)c1 [Compound 131, N-((1R,2S)-2-(4-chloro-3-fluorophenyl)cyclopropyl)-3-((5-(3-fluorophenyl)pyrimidin-2-yl)amino)benzamide] | < 30 | ≥ 60
4 | O=C(Nc1cccc(F)c1)c1cccc(NC2CCC(c3ccccc3)C2)c1 (stereo not drawn) [Compound 187, N-(3-fluorophenyl)-3-((3-phenylcyclopentyl)amino)benzamide] | < 30 | 
5 | CN1CCN(c2ccc(CNC(=O)c3cccc(Nc4ccc(-c5ccccc5)nn4)c3)cc2)CC1 [Compound 197, N-(4-(4-methylpiperazin-1-yl)benzyl)-3-((6-phenylpyridazin-3-yl)amino)benzamide] | < 30 | < 30
6 | O=C(NCCc1ccc(F)cc1)c1cccc(Nc2ccc(-c3ccccc3)nn2)c1 [Compound 198, N-(4-fluorophenethyl)-3-((6-phenylpyridazin-3-yl)amino)benzamide] | < 30 | ≥ 60
7 | O=C(NCc1ccccc1Br)c1cccc(Nc2ncc(-c3cccc(F)c3)cn2)c1 [Compound 216, N-(2-bromobenzyl)-3-((5-(3-fluorophenyl)pyrimidin-2-yl)amino)benzamide] | < 30 | < 30
8 | O=C(Nc1nnc(-c2ccccc2)[nH]1)c1cccc(Nc2ncc(-c3cccc(F)c3)cn2)c1 [Compound 194, 3-((5-(3-fluorophenyl)pyrimidin-2-yl)amino)-N-(5-phenyl-4H-1,2,4-triazol-3-yl)benzamide] | < 30 | 
9 | N#CC1(NC(=O)c2cccc(Nc3ccc(-c4cccc(F)c4)nn3)c2)CC1 [Compound 223, N-(1-cyanocyclopropyl)-3-((6-(3-fluorophenyl)pyridazin-3-yl)amino)benzamide] | < 30 | 30 to 60
10 | O=C(NCc1ccc(F)cc1)c1cccc(Nc2ncc(-c3cccc(F)c3)cn2)c1 [Compound A96] | < 30 | 30 to 60
11 | O=C(NC1(CO)CC1)c1cccc(Nc2ncc(-c3cccc(F)c3)cn2)c1 [Compound 219, 3-((5-(3-fluorophenyl)pyrimidin-2-yl)amino)-N-(1-(hydroxymethyl)cyclopropyl)benzamide] | < 30 | < 30
12 | O=C(Nc1ccc2c(c1)CCN2)c1cccc(Nc2ncc(-c3cccc(F)c3)cn2)c1 [Compound 181, 3-((5-(3-fluorophenyl)pyrimidin-2-yl)amino)-N-(indolin-5-yl)benzamide] | < 30 | 
13 | O=C(NCc1ccc(F)c(Cl)c1)c1cccc(Nc2ccc(-c3ccccc3)nn2)c1 [Compound 211, N-(3-chloro-4-fluorobenzyl)-3-((6-phenylpyridazin-3-yl)amino)benzamide] | < 30 | ≥ 60
14 | O=C(Nc1ccccc1)c1cccc(Nc2ncc(-c3cccc(F)c3)cn2)c1 [Compound A93] | < 30 | 
15 | CN(CCCNC(=O)c1cccc(Nc2ccc(-c3ccccc3)nn2)c1)Cc1ccccc1 [Compound A95] | < 30 | 30 to 60
16 | O=C(NCc1ccccc1C(F)(F)F)c1cccc(Nc2ncc(-c3cccc(F)c3)cn2)c1 [Compound 204, 3-((5-(3-fluorophenyl)pyrimidin-2-yl)amino)-N-(2-(trifluoromethyl)benzyl)benzamide] | < 30 | 30 to 60
17 | N#CC(NC(=O)c1cccc(Nc2ccc(-c3ccccc3)nn2)c1)c1ccc(F)cc1 (stereo not drawn) [Compound 212, N-(cyano(4-fluorophenyl)methyl)-3-((6-phenylpyridazin-3-yl)amino)benzamide] | < 30 | < 30
18 | COc1cc(CNC(=O)c2cccc(Nc3ccc(-c4ccccc4)nn3)c2)ccc1F [Compound 232, N-(4-fluoro-3-methoxybenzyl)-3-((6-phenylpyridazin-3-yl)amino)benzamide] | < 30 | < 30
19 | CN1CCN(Cc2ccc(NC(=O)c3cccc(Nc4ncc(-c5cccc(F)c5)cn4)c3)cc2)CC1 [Compound 135, 3-((5-(3-fluorophenyl)pyrimidin-2-yl)amino)-N-(4-((4-methylpiperazin-1-yl)methyl)phenyl)benzamide] | < 30 | 30 to 60
20 | Cc1ccc([C@@H]2C[C@H]2NC(=O)c2cccc(Nc3ccc(-c4ccccc4)nn3)c2)cc1 [Compound 235, 3-((6-phenylpyridazin-3-yl)amino)-N-((1R,2S)-2-(p-tolyl)cyclopropyl)benzamide] | 30 to 60 | ≥ 60
21 | O=C(NCc1ccc(C(F)(F)F)cc1C(F)(F)F)c1cccc(Nc2ncc(-c3cccc(F)c3)cn2)c1 [Compound 208, N-(2,4-bis(trifluoromethyl)benzyl)-3-((5-(3-fluorophenyl)pyrimidin-2-yl)amino)benzamide] | < 30 | 30 to 60
22 | O=C(NCc1ccc(F)cc1Br)c1cccc(Nc2ccc(-c3ccccc3)nn2)c1 [Compound 200, N-(2-bromo-4-fluorobenzyl)-3-((6-phenylpyridazin-3-yl)amino)benzamide] | < 30 | ≥ 60
23 | O=C(NCc1ccc(F)cc1F)c1cccc(Nc2ncc(-c3cccc(F)c3)cn2)c1 [Compound 215, N-(2,4-difluorobenzyl)-3-((5-(3-fluorophenyl)pyrimidin-2-yl)amino)benzamide] | < 30 | < 30
24 | COc1cc(F)ccc1CNC(=O)c1cccc(Nc2ccc(-c3ccccc3)nn2)c1 [Compound 214, N-(4-fluoro-2-methoxybenzyl)-3-((6-phenylpyridazin-3-yl)amino)benzamide] | < 30 | 30 to 60
25 | O=C(NC1CCCCCC1)c1cccc(Nc2ncc(-c3cccc(F)c3)cn2)c1 [Compound A94] | < 30 | 
26 | Nc1ccccc1CCNC(=O)c1cccc(Nc2ncc(-c3cccc(F)c3)cn2)c1 [Compound 148, N-(2-aminophenethyl)-3-((5-(3-fluorophenyl)pyrimidin-2-yl)amino)benzamide] | < 30 | < 30
27 | CN1CCN(c2cc(CNC(=O)c3cccc(Nc4ccc(-c5ccccc5)nn4)c3)ccc2F)CC1 [Compound 227, N-(4-fluoro-3-(4-methylpiperazin-1-yl)benzyl)-3-((6-phenylpyridazin-3-yl)amino)benzamide] | < 30 | 30 to 60
28 | O=C(N[C@@H]1C[C@H]1c1ccccc1)c1cccc(Nc2nnc(-c3ccccc3)o2)c1 [Compound 159, 3-((5-phenyl-1,3,4-oxadiazol-2-yl)amino)-N-((1R,2S)-2-phenylcyclopropyl)benzamide] | < 30 | 30 to 60
